Common to all, as to assay type: biochemical
The target in test [1] is T1, human neutrophil elastase (HNE) (Homo sapiens, UniProt P08246).
T1 sequence (P08246 30-267): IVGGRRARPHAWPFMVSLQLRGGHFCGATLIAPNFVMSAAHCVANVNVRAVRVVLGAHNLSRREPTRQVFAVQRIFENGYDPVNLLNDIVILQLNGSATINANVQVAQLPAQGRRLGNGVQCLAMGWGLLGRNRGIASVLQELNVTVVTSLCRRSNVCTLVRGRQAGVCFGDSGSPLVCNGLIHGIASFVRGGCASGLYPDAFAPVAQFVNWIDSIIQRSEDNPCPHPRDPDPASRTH
The test is described as follows: Inhibitory activity toward human neutrophil elastase, fluorogenic substrate, microplate reader. The protocol: (§1) The biological activity of peptidyl derivatives of phosphonic analogs of valine, alanine, phenylalanine, 4-guanidinephenylglycine, leucine, and 1-aminobutyric acid, containing the N-terminal biotin residue were tested for their ability to inhibit proteolytic activity of selected serine proteases, and the control cysteine proteases. All tests were performed using a microplate reader. As enzyme substrates fluorescent peptides were used. The method to measure the activity of the compounds obtained are described below for each of the enzymes tested: human neutrophil elastase (HNE), porcine pancreatic elastase (PPE), subtilisin (Sub), cathepsin G (CatG), proteinase 3 (PR3), chymotrypsin (ChTry) trypsin (Try), papain (Pap) and cathepsin L (CatL). Measurement of the inhibitory activity was performed at different inhibitor concentrations ranging from 12.5 nM to 2000nm.
Measurement of inhibitory activity of compounds toward human neutrophil elastase (HNE).
The inhibitory activity assay is performed at 37°C in 0,01M HEPES, 0,5M NaCl, 0,03% Triton X-100 buffer, pH 7,5, within 10 min after initial pre-incubation of the enzyme with inhibitor tested at 37°C for 10 min. The enzyme concentration is 0,0025U/ml. Substrate used Me-Suc-Ala-Ala-Pro-Val-AFC at 25µM. Measurement is taken at an excitation wavelength of 400nm and 505nm emission.
(§2) The IC50 value is the concentration of inhibitor required to inhibit half of the enzyme activity after 10 minutes incubation.

The target in test [2] is porcine pancreatic elastase (PPE) (Sus scrofa, UniProt P00772). Description: Inhibitory activity toward porcine pancreatic elastase, fluorogenic substrate, microplate reader. The protocol: as §1
Measurement of inhibitory activity of compounds toward porcine pancreatic elastase (PPE).
The inhibitory activity assay is performed at 37°C in 0,01M Tris-HCl, 0,05% Triton X-100 buffer, pH 8,5, within 10 min after initial pre-incubation of the enzyme with inhibitor tested at 37°C for 10 min. The enzyme concentration is 60nM. Substrate used Me-Suc-Ala-Ala-Pro-Val-AMC at 100µM. Measurement is taken at an excitation wavelength of 350nm and 460nm emission.
as §2

The target of a further test is T2, proteinase 3 (PR3) (Homo sapiens, UniProt P24158).
T2 sequence (P24158 28-248): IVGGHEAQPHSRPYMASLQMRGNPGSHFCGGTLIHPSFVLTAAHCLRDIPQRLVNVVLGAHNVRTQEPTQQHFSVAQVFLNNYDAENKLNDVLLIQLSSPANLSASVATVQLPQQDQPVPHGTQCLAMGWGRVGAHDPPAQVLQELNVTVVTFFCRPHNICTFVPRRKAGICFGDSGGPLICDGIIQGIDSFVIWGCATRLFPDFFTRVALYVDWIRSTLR
Description: Inhibitory activity toward proteinase 3, fluorogenic substrate, microplate reader. The protocol:
as §1
Measurement of inhibitory activity of compounds toward proteinase 3(PR3).
The inhibitory activity assay is performed at 37°C in 0,1M Tric-HCl, 0,5M NaCl buffer, pH 7,5, within 10 min after initial pre-incubation of the enzyme with inhibitor tested at 37°C for 10 min. The enzyme concentration is 17nM. Substrate used Abz-Tyr-Tyr-Abu-Anb-NH2 at 30µM. Measurement is taken at an excitation wavelength of 325nm and 400nm emission.
as §2

The next test addresses T3, cathepsin G (CatG) (Homo sapiens, UniProt P08311).
T3 sequence (P08311 21-244): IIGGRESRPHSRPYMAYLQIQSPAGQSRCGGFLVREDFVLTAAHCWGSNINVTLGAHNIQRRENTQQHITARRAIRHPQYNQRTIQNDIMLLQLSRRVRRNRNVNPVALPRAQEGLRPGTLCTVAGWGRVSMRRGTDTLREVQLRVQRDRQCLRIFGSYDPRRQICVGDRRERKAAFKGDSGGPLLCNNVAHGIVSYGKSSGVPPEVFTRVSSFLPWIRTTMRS
Description: Inhibitory activity toward cathepsin G, fluorogenic substrate, microplate reader. The protocol: as §1
Measurement of inhibitory activity of compounds toward cathepsin G (CatG).
The inhibitory activity assay is performed at 37°C in 0,1M Tric-HCl, 0,5M NaCl buffer, pH 7,5, within 10 min after initial pre-incubation of the enzyme with inhibitor tested at 37°C for 10 min. The enzyme concentration is 100nM. Substrate used MCA-Phe-Val-Thr-Gnf-Ser-Trp-Anb-NH2 at 2.5µM. Measurement is taken at an excitation wavelength of 325nm and 400nm emission.
as §2

For test [3], the target named is T4, subtilisin (Sub) (Bacillus licheniformis, UniProt P00780). Description: Inhibitory activity toward subtilisin, fluorogenic substrate, microplate reader. The protocol: as §1
Measurement of inhibitory activity of compounds toward subtilisin (Sub).
The inhibitory activity assay is performed at 37°C in 0,05M Tris-HCl, 1M NaCl, 0,01% Triton X-100 buffer, pH 7,5, within 10 min after initial pre-incubation of the enzyme with inhibitor tested at 37°C for 10 min. The enzyme concentration is 5nM. Substrate used Me-Suc-Ala-Ala-Pro-Phe-AMC at 5µM. Measurement is taken at an excitation wavelength of 350nm and 460nm emission.
as §2

In test [4] the target is T4, subtilisin (Sub). The description is as above. The conditions noted are these: 10 min, pH 7.5, read-out: Sub Kobs/[I].
The target of the next test is chymotrypsin (ChTry) (Bos taurus, UniProt P00766). Description: Inhibitory activity toward chymotrypsin, fluorogenic substrate, microplate reader. To be noted: 10 min pre-incubation at 37°C, pH 7,5, Suc-Ala-Ala-Pro-Phe-AMC 5µM; NI = brak inhibicji (no inhibition). The protocol:
as §1
Measurement of inhibitory activity of compounds toward […] (ChyTry).
The inhibitory activity assay is performed at 37°C in 0,1M HEPES, 0,5M NaCl buffer, pH 7,5, within 10 min after initial pre-incubation of the enzyme with inhibitor tested at 37°C for 10 min. The enzyme concentration is 3nM. Substrate used Suc-Ala-Ala-Pro-Phe-AMC at 5µM. Measurement is taken at an excitation wavelength of 350nm and 460nm emission.
as §2

The target in the next test is T5, trypsin (Try) (Bos taurus, UniProt P00760).
T5 sequence (P00760 24-246): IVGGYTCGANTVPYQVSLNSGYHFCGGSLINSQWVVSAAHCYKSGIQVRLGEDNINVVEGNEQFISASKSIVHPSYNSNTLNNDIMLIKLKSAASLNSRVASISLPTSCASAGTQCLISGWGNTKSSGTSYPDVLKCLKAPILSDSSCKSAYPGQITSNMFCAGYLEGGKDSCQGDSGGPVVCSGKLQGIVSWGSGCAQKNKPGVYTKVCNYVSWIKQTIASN
Description: Inhibitory activity toward trypsin, fluorogenic substrate, microplate reader. The conditions noted are these: 10 min pre-incubation at 37°C, pH 7,5, Cbz-Arg-AFC 100µM; NI = brak inhibicji (no inhibition). The protocol: as §1
Measurement of inhibitory activity of compounds toward trypsin (Try).
The inhibitory activity assay is performed at 37°C in 0,1M HEPES, 0,5M NaCl, 0,03% Triton X-100 buffer, pH 7,5, within 10 min after initial pre-incubation of the enzyme with inhibitor tested at 37°C for 10 min. The enzyme concentration is 25nM. Substrate used Cbz-Arg-AFC at 100µM. Measurement is taken at an excitation wavelength of 400nm and 505nm emission.
as §2

The mark [5] stands for this setting: read-out: PR3 IC50, 10 min pre-incubation at 37°C, pH 7,5, Abz-Tyr-Tyr-Abu-Anb-NH2 30µM, NI = brak inhibicji (no inhibition).
Setting [6] is: 10 min pre-incubation at 37°C, pH 8,5, Me-Suc-Ala-Ala-Pro-Val-AMC 100µM, NI = brak inhibicji (no inhibition).
The mark [7] stands for this setting: 10 min pre-incubation at 37°C, pH 7,5, MCA-Phe-Val-Thr-Gnf-Ser-Trp-Anb-NH2 2.5µM, NI = brak inhibicji (no inhibition).

Where two headings read alike, the source gives them in different places.

In general, IC50 refers to the concentration needed to halve the response being measured.

Sequence of porcine pancreatic elastase (PPE) (P00772 27-266): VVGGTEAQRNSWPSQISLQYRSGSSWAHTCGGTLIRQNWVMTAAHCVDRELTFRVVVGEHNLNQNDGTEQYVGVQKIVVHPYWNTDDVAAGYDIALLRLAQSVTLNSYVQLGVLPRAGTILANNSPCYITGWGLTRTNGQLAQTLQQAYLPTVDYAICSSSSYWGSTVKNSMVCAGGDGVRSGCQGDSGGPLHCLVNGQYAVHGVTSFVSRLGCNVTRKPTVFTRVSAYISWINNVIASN
T4 sequence (P00780 106-379): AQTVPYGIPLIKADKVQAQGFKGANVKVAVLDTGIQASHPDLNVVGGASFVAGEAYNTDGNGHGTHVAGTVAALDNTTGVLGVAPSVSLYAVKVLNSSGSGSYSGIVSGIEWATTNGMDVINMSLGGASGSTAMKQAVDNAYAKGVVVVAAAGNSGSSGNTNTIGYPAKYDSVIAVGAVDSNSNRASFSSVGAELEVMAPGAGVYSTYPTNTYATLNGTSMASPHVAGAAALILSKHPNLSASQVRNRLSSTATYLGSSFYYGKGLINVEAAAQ

Consider `CC(C)CC(NC(=O)C1CCCN1C(=O)C(NC(=O)CCCCC1SCC2NC(=O)NC21)C(C)C)P(=O)(Oc1ccccc1)Oc1ccccc1` (stereo not drawn) [Compound 7, diphenyl (3-methyl-1-(1-(3-methyl-2-(5-(2-oxohexahydro-1H-thieno[3,4-d]imidazol-4-yl)pentanamido)butanoyl)pyrrolidine-2-carboxamido)butyl)phosphonate], for which the IC50 in test [1] (read-out: HNE IC50, 10 min pre-incubation at 37°C, pH 7,5, Me-Suc-Ala-Ala-Pro-Val-AFC 25µM, NI = brak inhibicji (no inhibition)) was > 5000 nM; in test [2] (read-out: PPE IC50, 10 min pre-incubation at 37°C, pH 8,5, Me-Suc-Ala-Ala-Pro-Val-AMC 100µM, NI = brak inhibicji (no inhibition)) it was > 5000 nM; at proteinase 3 (PR3) (setting [5]), > 5000 nM; at cathepsin G (CatG) (read-out: Cat G IC50, 10 min pre-incubation at 37°C, pH 7,5, MCA-Phe-Val-Thr-Gnf-Ser-Trp-Anb-NH2 2.5µM, NI = brak inhibicji (no inhibition)) it was > 5000 nM; against subtilisin (Sub) [3] it was 76.5 ± 1.65 nM. Moreover, at subtilisin (Sub) [4], the kinact/KI turned out to be 15000 M⁻¹ s⁻¹.

On to `CSc1ccc(OP(=O)(Oc2ccc(SC)cc2)C(CC(C)C)NC(=O)C2CCCN2C(=O)C(NC(=O)CCCCC2SCC3NC(=O)NC32)C(C)C)cc1` (stereo not drawn) [Compound 12, bis(4-(methylthio)phenyl) (3-methyl-1-(1-(3-methyl-2-(5-(2-oxohexahydro-1H-thieno[3,4-d]imidazol-4-yl)pentanamido)butanoyl)pyrrolidine-2-carboxamido)butyl)phosphonate], for which the half-maximal inhibitory concentration (IC50) in test [1] was 66.5 ± 6.5 nM; in test [2], 289 ± 10 nM; at proteinase 3 (PR3) (setting [5]), > 5000 nM; at cathepsin G (CatG), 436 ± 22 nM; at subtilisin (Sub) [3] (read-out: Sub IC50, 10 min pre-incubation at 37°C, pH 7,5, Me-Suc-Ala-Ala-Pro-Phe-AMC 5µM, NI = brak inhibicji (no inhibition)) it was > 5000 nM. Also, in test [1] (10 min pre-incubation at 37°C, pH 7,5, Me-Suc-Ala-Ala-Pro-Val-AFC 25µM, NI = brak inhibicji (no inhibition)), the “HNE Kobs/[I]” value is on record as 1.7*10^4 M^-1S^-1. In test [2] (setting [6]), the “PPE Kobs/[I]” value is recorded as 4*10^3 M^-1S^-1. For the same compound, the “Cat G Kobs/[I]” value at cathepsin G (CatG) (setting [7]) is reported as 2.6*10^3 M^-1S^-1. Besides, at chymotrypsin (ChTry), the “ChyTr Kobs/[I]” value was 4.5*10^4 M^-1S^-1. In addition, at trypsin (Try), the “Try Kobs/[I]” value was 1.9*10^3 M^-1S^-1.

For the compound `COC(=O)c1ccc(OP(=O)(Oc2ccc(C(=O)OC)cc2)C(CC(C)C)NC(=O)C2CCCN2C(=O)C(NC(=O)CCCCC2SCC3NC(=O)NC32)C(C)C)cc1` (stereo not drawn) [Compound 9, dimethyl 4,4'-(((3-methyl-1-(1-(3-methyl-2-(5-(2-oxohexahydro-1H-thieno[3,4-d]imidazol-4-yl)pentanamido)butanoyl)pyrrolidine-2-carboxamido)butyl)phosphoryl)bis(oxy))dibenzoate], the IC50 is 5.61 ± 0.02 nM in test [1]; > 5000 nM in test [2]; 59.5 ± 8 nM on proteinase 3 (PR3); 720 ± 60 nM at cathepsin G (CatG); 21.2 ± 1.2 nM on subtilisin (Sub) [3]. Besides, in test [2] (setting [6]), the “PPE Kobs/[I]” value is <200 M^-1S^-1. The “PR3 Kobs/[I]” value on proteinase 3 (PR3) (10 min pre-incubation at 37°C, pH 7,5, Abz-Tyr-Tyr-Abu-Anb-NH2 30µM, NI = brak inhibicji (no inhibition)) is recorded as 3.9*10^4 M^-1S^-1. The “Cat G Kobs/[I]” value at cathepsin G (CatG) (setting [7]) is 1.6*10^3 M^-1S^-1. Further, on chymotrypsin (ChTry), the “ChyTr Kobs/[I]” value is given as 5.2*10^4 M^-1S^-1. The “Sub Kobs/[I]” value on subtilisin (Sub) [3] (10 min pre-incubation at 37°C, pH 7,5, Me-Suc-Ala-Ala-Pro-Phe-AMC 5µM, NI = brak inhibicji (no inhibition)) was 5.4*10^4 M^-1S^-1. Also, the “Try Kobs/[I]” value on trypsin (Try) is given as 4.4*10^4 M^-1S^-1.

The values are drawn from patent publication EP2676962A1, “Derivatives of 1-aminoalkylphosphonate diaryl esters, method of 1-aminoalkylphosphonate diaryl ester derivatives preparation and their application” (priority 2012, dated 2013).
